ChEMBL document CHEMBL2150972, “Hepatitis C virus protease inhibitors: patent highlight” (ACS Med Chem Lett, 2012)

Columns and labels:
Hepatitis C virus [1] = assay: Antiviral activity against HCV assessed as inhibition of viral RNA replication by cell based luciferase reporter gene assay; type: functional, organism-based, Hepacivirus hominis
Hepatitis C virus [2] = assay: Antiviral activity against HCV by HCVSPF-CY1B assay; type: functional, organism-based, Hepacivirus hominis

Structure (SMILES): O=C(N[C@H]1CCCCC/C=C/[C@@H]2C[C@@]2(C(=O)NS(=O)(=O)C2CC2)NC(=O)[C@@H]2C[C@@H](Oc3ccncc3)CN2C1=O)OCCF
- EC50 (Hepatitis C virus [1]): 290 nM

Structure (SMILES): CCOc1cc(O[C@@H]2C[C@H]3C(=O)N[C@]4(C(=O)NS(=O)(=O)C5CC5)C[C@H]4/C=C/CC[C@@H]4CC4[C@H](NC(=O)c4ccn(C)n4)C(=O)N3C2)ccn1 (some centres not stated)
- EC50 (Hepatitis C virus [2]): 34 nM
